What was measured:
[1] = test system: male Wistar rats; assay: Bronchosecretogogue activity (Mawatari technique); type: in vivo, rat; conditions: 500 mg/kg/os, FlNa = Sodium fluoresceine
Description: The broncosecretogogue activity has been determined in male Wistar rats by per os administration according to the method of Mawatari [Mawatari H., Kagoshima Daigaku, Igaku-Zasshi, 27, 561 (1976)], comparing I with carboxymethylcysteine, sobrerol and guaiphenesin at the doses hereinafter stated.

[2] = Solubility of the isolated compound; type: physicochemical
Description: 73 Grams of an oil, impossible to crystallize but perfectly pure in TLC, are obtained.

[3] = test system: tracheo-bronchial mucus from rabbits; assay: Fluidifying activity in vivo, microviscosimeter on tracheo-bronchial mucus; conditions: 500 mg/kg/os, rabbit
Description: The fluidifying effect has been determined with the microviscosimeter on the tracheo-bronchial mucus from rabbits after administration by oral route, comparing I with sobrerol, at the doses hereinafter stated.

[4] = Acute toxicity (method of Litchfield and Wilcoxon), rat; conditions: Wistar, in vivo
Description: (§1) The acute toxicity has been determined in Swiss mouses and in Wistar rats for different administration routes, according to the method of Litchfield J. T. and Wilcoxon [J. Pharm. Exp. Therap. 96,99-113 (1949)].

[5] = Acute toxicity (method of Litchfield and Wilcoxon), mouse; conditions: Swiss, in vivo
Description: as §1

[6] = Pharmacokinetic tests after oral administration; type: in vivo; conditions: oral administration of I and sobrerol in equimolar doses, in the animal

SMILES	% Increase of FlNa in comparison with controls [1] [%]	solubility in the common organic solvents ([2]; common organic solvents)	solubility in water ([2]; water)	% Reduction of the mucus viscosity [3] [%]	LD50 ([4]; ip) [mg/kg]	LD50 ([4]; oral, os) [mg/kg]	LD50 ([5]; ip) [mg/kg]	LD50 ([5]; oral, os) [mg/kg]	sobrerol concentrations at pulmonary level [6]
CC1=CCC(C(C)(C)O)CC1OC(=O)c1cccs1 (centres unmarked) [Compound I, thiophen-2-carboxylate of 2-methyl-5-(1-hydroxy-1-methylethyl)-cyclohexen-2-yl]	76.4	soluble in the common organic solvents	almost insoluble in water	39.8	2650	> 4000	2500	> 4000	higher sobrerol concentrations at pulmonary level
CC1=CCC(C(C)(C)O)CC1O (centres unmarked) [Sobrerol, 2-methyl-5-(1-hydroxy-1-methyl-ethyl)-2-cyclohexen-1-ol, reference compound]	33.4	–	–	15.6	–	–	–	–	–
